Reference: patent publication US20160102067A1, “OXIRAN AMINES” (V-BIOTEK HOLDING APS, priority 2012, published 2016)
In brackets after ≈: the same amount, converted by molar mass.

Legend:
[1] = system: MRSA (meticillin-resistant staphylococcus aureusis); assay: MIC determination for MRSA; type: cell-based; settings: Staphylococcus aureus, dilution series, read-out: MIC (Minimum Inhibitory Concentration)
Protocol: (§1) 15.3 mg 2-Methyl-3-nonyloxiran-2-amine obtained in example 6 was mixed with 100 μl DMSO (Dimethyl sulfoxid) to obtain a stock solution. The stock solution was used for determining the MIC (Minimum Inhibitory Concentration) for MRSA (meticillin-resistant staphylococcus aureusis) and MSSA (meticillin-sensitive staphylococcus aureusis).

[2] = system: MSSA (meticillin-sensitive staphylococcus aureusis); assay: MIC determination for MSSA; type: cell-based; settings: Staphylococcus aureus, dilution series, read-out: MIC (Minimum Inhibitory Concentration)
Protocol: as §1

P. falciparum = assay: [3H]-hypoxanthine incorporation, growth rate of P. falciparum (Example 7); type: cell-based, Plasmodium falciparum; settings: [3H]-hypoxanthine incorporation after 48 hrs, 3 fold dilution series, FIG. 15
Protocol: 15.3 mg 2-Methyl-3-nonyloxiran-2-amine obtained in example 6 was mixed with 100 μl DMSO (Dimethyl sulfoxid) to obtain a stock solution. A first solution was prepared by mixing 100 uL of the stock solution with 400 uL of parasite media. Subsequently this solution was diluted in 15 dilution series, each dilution serie being diluted 3 fold. The same protecol as used in example 6 was applied for this experiment.
Specifically, the incorporation of [3H]-hypoxanthine was used as a measure for the life conditions of P. falciparum. Parasites were syncronised to ring stages by […] treatment and then incubated at 0.3% parasitemia at 5% haematocrit in 100 uL of growth medium containing [3H]-hypoxanthine over one cycle of replication, i.e. 48 hrs. Each experiment was performed in triplets.

[3] = system: erythrocytic stages of P. falciparum; assay: [3H]-hypoxanthine incorporation assay with extract, P. falciparum strain K1; type: cell-based, Plasmodium falciparum; settings: extract at a dilution of 160 times
Protocol: In vitro activity of extract dilutions were tested against erythrocytic stages of P. falciparum by a modified [3H]-hypoxanthine incorporation assay (Scala, F., Fattorusso, E., Menna, M., Taglialatela-Scafati, O., Tiemey, M., Kaiser, M., Tasdemir, D., 2010. Bromopyrrole alkaloids as lead compounds against protozoan parasites. Marine Drugs 8, 2162-2174.) using the […] strain K1. The standard drug used as a positive control was amodiaquine.
Briefly, parasite cultures incubated in RPMI 1640 medium with 5% Albumax (without hypoxanthine) were exposed to serial extract dilutions in microtiter plates. After 48 h of incubation at 37 ° C. in a reduced oxygen atmosphere, 0.5 μCi 3H-hypoxanthine was added to each well. Cultures were incubated for a further 24 h before they were harvested onto glass-fiber filters and washed with distilled water. The radioactivity was counted using a Betaplate™ liquid scintillation counter (Wallac, Zurich, Switzerland). The results were recorded as counts per minute (CPM) per well at each drug concentration and expressed as percentage of the untreated controls. IC50 values were calculated from graphically plotted dose-response curves. Each IC50 value obtained is the mean of at least two separate experiments performed in duplicate (the variation is maximum 20%).

| MIC [1] [mg/mL] | MIC [2] [mg/mL] | SMILES | growth rate of P. Falciparum (P. falciparum) | [3H]-hypoxanthine incorporation value [3] [CPM] |
| --- | --- | --- | --- | --- |
| 38.3 (≈ 192 mM) | 9.6 (≈ 48.2 mM) | CCCCCCCCCC1OC1(C)N (stereo not shown) [2-Methyl-3-nonyloxiran-2-amine] | concentration dependent inhibition |  |
|  |  | CCN(CC)Cc1cc(Nc2ccnc3cc(Cl)ccc23)ccc1O [amodiaquine] |  | 47.5 |
